Experimental data from patent publication US20250195522A1, “TRANSDERMAL DOSAGE FORM, FOR PROMOTING LOCAL BLOOD FLOW, OF DUAL-ACTING PDE5 INHIBITOR/ORGANIC NITRATE ESTER” (UIF (University Industry Foundation), Yonsei University, priority 2022, published 2025).
Entries after “also recorded” stand apart in the source; their conditions may differ.

How the values were obtained:
Versican (VCAN) = experiment: Immunohistochemical staining of mouse back skin, dermal papilla cell marker Versican (VCAN); format: in vivo, mice; conditions: Day 21
Excerpt: (§1) The development of skin tissue, which becomes the surrounding support for hair growth, plays an important role in hair growth. As such, in order to compare the degree of the development of skin tissue in 6 experimental groups of the vehicle-applied control group (topical control), the Minoxidil-applied positive control group (topical minoxidil), the Cp 1 application group (topical Cp 1), the candlelit-shaped microneedle control group (CMN control), the Cp 1 microneedle administration group (Cp 1 conv-DMN) and the Cp 1 candlelit-shaped microneedle administration group (Cp 1 CMN), β-catenin and PCNA, which are biomarkers indicating skin tissue proliferation, the vascular endothelial cell marker MECA 32 showing the development of the vascular network around the mouse hair follicle, and the dermal papilla cell (DP) marker Versican (VCAN), which is generated in the hair follicle anagen phase showing the hair follicle anagen phase inducing effect, were observed by immunohistochemical staining. To this end, as in Example 1-2, the back tissue of the mice was collected on Day 21, then the frozen tissue was sectioned, and the fluorescent material-conjugated antibody was treated on the tissue, and then the fluorescence images were analyzed. The antibodies used were β-catenin (BD Biosciences, San Jose, CA, USA), PCNA (LSBIO, Seattle, WA, USA), VCAN (LSBIO, Seattle, WA, USA) and MECA-32 (Novus Biologicals, CA, USA), respectively.

[1] = system: C57BL/6 mice with hair follicles in the telogen phase; experiment: Hair growth in hair-removed C57BL/6 mice, evaluated on Day 21 (visual/Image J, H&E); format: in vivo; conditions: for skin area converted to black (anagen phase) with respect to the total hair-removed skin area / skin area with actual hair growth as a percentage of the total hair removal skin area: 50 μL
Method: 7-week-old C57BL/6 mice (Orient Bio, Korea) with hair follicles in the telogen phase were purchased and the experiment was performed. The experiment was conducted using 4 mice each for 6 experimental groups of a vehicle-applied control group (topical control), a Minoxidil-applied positive control group (topical Minoxidil), an Cp 1-applied group (topical Cp 1), a candlelit-shaped microneedle control group (CMN control), an Cp 1 microneedle administration group (Cp 1 conv-DMN) and an Cp 1 candlelit-shaped microneedle administration group (Cp 1 CMN).
In the topical formulation, polyethylene glycol 400 (PEG 400; Sigma-Aldrich, St. Louis, MO, USA) and ethanol (99.5°; Sigma-Aldrich) were mixed in 50 μL solution with a ratio of 7:3 (v/v) containing 2% (w/v) of minoxidil (Sigma-Aldrich) and 0.002% (w/v) of Cp-1 (2 μg per day). The topical formulation groups' 50 μL solutions were administered twice a day.
The experiment was started in a pink skin condition by removing the hair on the back of the mice, and the drug application was carried out twice a day for 21 days, and when injected using a microneedle, it was injected once every 2 days and was not injected on last Day 21.
On Day 21 of the administration, the area in which the color of the back of the mice was changed to black, that is, the area converted to the anagen phase among the shaved areas was analyzed with the naked eye and the Image J software (National Institutes of Health, Bethesda, MD, USA), which is an image analysis program.
On Day 21 of the administration, the ratio of actual hair growth on the back of the mice was analyzed with the naked eye and the Image J software (National Institutes of Health, Bethesda, MD, USA), which is an image analysis program.
On Day 21 of the administration, the distribution rate by hair growth cycle in mice was compared.

MECA 32 = experiment: Immunohistochemical staining of mouse back skin, vascular endothelial cell marker MECA 32; format: in vivo, mice; conditions: Day 21
Excerpt: as §1

β-catenin = experiment: Immunohistochemical staining of mouse back skin, β-catenin; format: in vivo, mice; conditions: Day 21
Excerpt: as §1

[2] = general microneedle or candlelit-shaped microneedle
[3] = topical application twice a day
[4] = topical application twice a day, 2% (w/v) minoxidil or 0.002% (w/v) Cp 1

| SMILES | expression level of VCAN (rank order of groups) (Versican (VCAN); [2]) | expression level of VCAN (rank order of groups) (Versican (VCAN); topical application) | skin thickness and hair thickness ([1]; administered using microneedles, especially candlelit-shaped microneedles) | hair growth effect and skin tissue development (visual observation, H&E) [1, 3] | skin area converted to black (anagen phase) with respect to the total hair-removed skin area [1, 4] | skin area with actual hair growth as a percentage of the total hair removal skin area [1, 4] | skin thickness and hair thickness ([1]; topical application, compared to topical Minoxidil) | expression level of MECA 32 (rank order of groups) (MECA 32; [2]) | expression level of MECA 32 (rank order of groups) (MECA 32; topical application) | β-catenin expression (β-catenin; Cp 1 applied, compared with Minoxidil applied) | β-catenin expression (β-catenin; administered using a candlelit-shaped microneedle) | β-catenin expression (β-catenin; administered with a microneedle, compared with Minoxidil applied) | hair follicles converted to the anagen phase (distribution rate by hair growth cycle, H&E) [1, 4] |
| --- | --- | --- | --- | --- | --- | --- | --- | --- | --- | --- | --- | --- | --- |
| CCCOc1ccc(S(=O)(=O)N2CCC(CCO[N+](=O)[O-])(CCO[N+](=O)[O-])CC2)cc1-c1nc2c(CCC)cn(CC)c2c(=O)[nH]1 [Cp 1, (1-((3-(5-ethyl-4-oxo-7-propyl-4,5-dihydro-3H-pyrrolo[3,2-d]pyrimidin-2-yl)-4-propoxyphenyl)sulfonyl)piperidine-4,4-diyl)bis(ethane-2,1-diyl) dinitrate] | increased in the order of Minoxidil application, Cp 1 application, Cp 1 administration using a general microneedle and M-19 administration using a candlelit-shaped microneedle | increased in the order of Minoxidil application, Cp 1 application, Cp 1 administration using a general microneedle and M-19 administration using a candlelit-shaped microneedle | more significantly improved skin thickening effect and hair thickness improvement effect | increased skin thicknesses along with the hair growth effect; also recorded: more effective than Minoxidil treatment | 92.1±3.0% | 61.0±14.0% | more improved skin thickening effect and hair thickness improvement effect | increased in the order of Minoxidil application. Cp 1 application, Cp 1 administration using a general microneedle and M-19 administration using a candlelit-shaped microneedle | increased in the order of Minoxidil application. Cp 1 application, Cp 1 administration using a general microneedle and M-19 administration using a candlelit-shaped microneedle | higher | highest β-catenin expression effect | higher |  |
| Nc1cc(N2CCCCC2)nc(N)[n+]1[O-] [Minoxidil, 2,4-diamino-6-piperidinopyrimidine-3-oxide, reference compound] |  | increased in the order of Minoxidil application, Cp 1 application, Cp 1 administration using a general microneedle and M-19 administration using a candlelit-shaped microneedle |  | increased skin thicknesses along with the hair growth effect | 65.3±22.3% | 38.4±17.1% |  |  | increased in the order of Minoxidil application. Cp 1 application, Cp 1 administration using a general microneedle and M-19 administration using a candlelit-shaped microneedle |  |  |  | 52.5±1.3% |
